Holding throughout (test): NCI-60 cell line screen, 48 h
Experiment [1] has as its system NCI-H522 lung.
Experiment [2] concerns IGROV1 ovarian.
The test system of experiment [3] is UACC-257 melanoma.
The test system of experiment [4] is SN12C renal.
The subject of experiment [5] is MDA-MB-231 breast.
Experiment [6] has as its system EKVX NSCLC.
For experiment [7], the system named is COLO 205 colon.
Experiment [8] deals with SR leukemia.
Experiment [9] relates to CCRF-CEM leukemia.
For experiment [10], the system named is CAKI-1 renal.
Experiment [11] has as its system OVCAR-3 ovarian.

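48-hour exposure; five concentrations; linearly interpolated endpoints. TGI marks complete inhibition of growth.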

Regarding `CCNC(=S)N/N=C/c1ccccn1`, the TGI was over 100 µM in [1]; over 100 µM in experiment [2]; over 100 µM in experiment [3]; 41 µM in [4]; over 100 µM in experiment [5]; over 100 µM in experiment [6]. Also, the TGI in [7], in experiment [8] and in experiment [9] was over 100 µM each time.
`CC1(C)[C@@H]2C[C@H]1c1cnc(-c3ccccn3)cc1[C@H]2C(O)[C@@H]1c2cc(-c3ccccn3)ncc2[C@H]2C[C@@H]1C2(C)C` (some centres not stated): the TGI in experiment [1] was found to be 3.06 µM; in experiment [10], 2.43 µM; in experiment [2], 6.98 µM; in [11], 1.77 µM; in [3], 26 µM; in [4] it was 1.89 µM. Also, the TGI is 3.89 µM in experiment [5], 13.3 µM in experiment [6], 4.06 µM in experiment [7] and 0.354 µM in experiment [8].
On to `COc1cc2nc(-c3c(F)cccc3F)n(Cc3c(F)cccc3F)c2cc1Cc1c(F)cccc1F`, for which the TGI in experiment [1], in experiment [10], in experiment [11], in experiment [3], in experiment [4] and in experiment [5] was over 100 µM in each case. In addition, the TGI in experiment [6], in experiment [7], in experiment [8] and in experiment [9] was over 100 µM throughout.
As for `C[C@@H]1C(=O)CC2(O)[C@@]13C[C@@H](OC(=O)[C@@H]3O)[C@@H](C)[C@@]21COC1=O` (some centres not stated), the TGI in experiment [1], in [2], in [11], in [3], in [4] and in experiment [5] was over 100 µM in each case. Further, the TGI in experiment [6], in [7], in [8] and in [9] was over 100 µM each time.
`N/C(CSCCSC/C(N)=N/O)=N\O`: the TGI in experiment [1], in [10], in [2], in [11], in experiment [4] and in experiment [5] was over 100 µM in each case. Moreover, the TGI in experiment [6], in experiment [7], in experiment [8] and in experiment [9] was over 100 µM in each case.
With `COC(=O)C1=C(C(=O)OC)C2(C)CCC(=O)C1O2` (configuration not stated), the TGI in [10], in [2], in experiment [11], in experiment [3], in experiment [4] and in [5] was over 10 µM each time. The TGI in experiment [6], in experiment [7], in [8] and in [9] was over 10 µM each time.
Turning to `C=C1CC=CC(C)(C)C1C/C=C(\C)C(O)CBr` (configuration not stated), the TGI in experiment [1] was 23.2 µM; in experiment [10] it was 54.1 µM; in experiment [2] it was over 100 µM; in experiment [3], over 100 µM; in [4] it was over 100 µM; in experiment [5], over 100 µM. For the same compound, the TGI is over 100 µM in experiment [6], over 100 µM in experiment [7], 88.5 µM in [8] and over 100 µM in experiment [9].
For the compound `COC(=O)C(CCCCNC(=O)CNC(=O)OCc1ccccc1)NC(=O)C(CCCCNC(=O)CNC(=O)OCc1ccccc1)NC(=O)OCc1ccccc1` (configuration not stated), the TGI in [10], in experiment [11], in [3], in [4], in experiment [5] and in experiment [8] was over 100 µM in each case. Further, the TGI in [9] was over 100 µM.
Regarding `Cc1ncc([N+](=O)[O-])n1CCNC(=O)CCCCn1ccnc1[N+](=O)[O-]`, the TGI in experiment [1], in [10], in [2], in experiment [11], in experiment [3] and in [4] was over 100 µM throughout. In addition, the TGI in experiment [5], in experiment [7], in experiment [8] and in [9] was over 100 µM throughout.
Regarding `CN(C)c1nc(=NCc2ccccn2)ss1`, the TGI in experiment [10], in experiment [2], in experiment [11], in experiment [3], in [4] and in [5] was over 10 µM in each case. For the same compound, the TGI in [6] is over 10 µM; in [7], over 10 µM; in [8], 4.75 µM; in experiment [9], over 10 µM.
Regarding `O=CN(O)CC(=O)O`, the TGI in experiment [2], in experiment [11], in [3], in experiment [4], in experiment [5] and in experiment [6] was over 100 µM throughout. Moreover, the TGI in [7], in experiment [8] and in experiment [9] was over 100 µM throughout.
Consider `C/C(=N\Nc1nc2ccccc2s1)c1cccnn1`, for which the TGI was 17.7 µM in experiment [1]; over 100 µM in [10]; 15.5 µM in [2]; over 100 µM in experiment [11]; over 100 µM in experiment [3]; over 100 µM in experiment [4]. The TGI is 36.2 µM in [5], 33.5 µM in [6], over 100 µM in experiment [7] and 52.5 µM in experiment [8].
As for `Cc1cn(C2CC(OC(c3ccccc3)(c3ccccc3)c3ccccc3)C(COC(c3ccccc3)(c3ccccc3)c3ccccc3)O2)c(=O)[nH]c1=O` (configuration not stated), the TGI in experiment [10], in experiment [2], in experiment [11], in experiment [3], in experiment [4] and in [5] was over 100 µM each time. Also, the TGI in experiment [6], in [7], in experiment [8] and in experiment [9] was over 100 µM throughout.
Regarding `COc1cc(-c2c3c(cc4c2OCO4)[C@@H](Nc2ccc4c(c2)Cc2cc(N[C@@H]5c6cc7c(cc6C(c6cc(OC)c(O)c(OC)c6)[C@H]6C(=O)OC[C@H]56)OCO7)ccc2-4)[C@H]2COC(=O)[C@@H]2C3)cc(OC)c1O` (some centres not stated), the TGI in experiment [10] is 88.9 µM; in experiment [2], 21.3 µM; in experiment [11], over 100 µM; in [3] it was over 100 µM; in [4] it was over 100 µM; in experiment [5] it was over 100 µM. Further, the TGI in [6] was over 100 µM; in experiment [7], 28.7 µM; in [8], 56.5 µM; in [9], over 100 µM.
`CCOC(=O)c1ccc(C(=O)/C(C(=O)OC(C)(C)C)=C2\CCCN2C)n1C`: the TGI in experiment [10], in experiment [2], in experiment [11], in experiment [3], in experiment [4] and in experiment [5] was over 100 µM throughout. In addition, the TGI in experiment [6], in experiment [7], in experiment [8] and in experiment [9] was over 100 µM each time.
As to `O=c1oc2ccccc2c2nc3ccccc3cc12`, the TGI in [1], in [10], in experiment [2], in experiment [3], in experiment [4] and in experiment [5] was over 100 µM each time. For the same compound, the TGI in [6], in [7], in experiment [8] and in experiment [9] was over 100 µM throughout.
For `O=c1cc(-c2ccccc2F)[nH]c2cc3c(cc12)OCO3`, the TGI in experiment [1] was 0.238 µM; in experiment [2], over 100 µM; in [11], 0.779 µM; in [3], over 77.5 µM; in experiment [4], over 27.1 µM; in experiment [5] it was 3.34 µM. Also, the TGI in experiment [7] was 0.281 µM; in experiment [8], over 100 µM; in [9], over 17.7 µM.
In the case of `NS(=O)(=O)c1nnc(NSc2ccc([N+](=O)[O-])cc2)s1`, the TGI in [1] is 44.3 µM; in experiment [10], over 100 µM; in experiment [11] it was over 100 µM; in experiment [3] it was over 100 µM; in experiment [4] it was over 100 µM; in [5] it was over 100 µM. In addition, the TGI in [6], in experiment [7] and in experiment [8] was over 100 µM in each case.
Regarding `COC(=O)/C=C\S/C(=C(/c1ccccc1)n1ccc(C(=O)OC)n1)c1ccccc1`, the TGI is 48 µM in [1]; over 100 µM in experiment [10]; over 100 µM in [2]; over 100 µM in experiment [3]; over 100 µM in [4]; 70.9 µM in [5]. In addition, the TGI in [6], in [7] and in experiment [8] was over 100 µM throughout.
For `C(=N/Nc1ccc(-c2nc3ccccc3[nH]2)cc1)/c1c(-c2ccccc2)[nH]c2ccccc12`, the TGI is 2.02 µM in experiment [1]; over 100 µM in experiment [10]; over 100 µM in [2]; 0.591 µM in experiment [11]; over 100 µM in experiment [3]; 12 µM in experiment [5]. For the same compound, the figures for the TGI in experiment [6], in [8] and in experiment [9] were over 100 µM, 17.1 µM and over 100 µM, respectively.
In the case of `CCOC1NC(=O)c2ccccc21` (configuration not stated), the TGI in [1], in experiment [2], in experiment [11], in [3], in [4] and in experiment [5] was over 100 µM in each case. Also, the TGI in experiment [6], in [7], in experiment [8] and in experiment [9] was over 100 µM in each case.
Turning to `CC1=CCC[C@H]2[C@](C)(CC3=CC(=O)C4SCCSC4C3=O)[C@@H](C)CC[C@]12C` (some centres not stated), the TGI in experiment [10] was 99.2 µM; in [2] it was 84.6 µM; in experiment [11], 48.4 µM; in experiment [3], 64 µM; in [4], 28.8 µM; in experiment [5], 46.7 µM. For the same compound, the TGI in experiment [6] turned out to be 54.4 µM; in experiment [7], 35.9 µM; in experiment [8] it was 53.6 µM; in [9], 48.7 µM.
For the compound `N#CC(C#N)=Cc1cccc(Oc2ccccc2)c1`, the TGI in experiment [1] amounted to 51.2 µM; in [10] it was 50.4 µM; in experiment [2] it was 67 µM; in experiment [11] it was 72 µM; in experiment [3] it was 28.1 µM; in [4], 48.9 µM. Besides, the TGI in [6] was over 100 µM; in experiment [7] it was 73.9 µM; in experiment [8] it was 61.3 µM; in experiment [9], over 100 µM.
For the compound `O=c1c(Cc2ccccc2)c(-c2ccccc2)[nH]n1C1=NCCN1`, the TGI in experiment [1], in experiment [10], in experiment [2], in experiment [11], in experiment [3] and in experiment [5] was over 100 µM each time. Further, the TGI in experiment [6], in experiment [7], in experiment [8] and in experiment [9] was over 100 µM each time.
`OC(c1ccco1)C(F)(F)c1nc2ccccc2o1` (configuration not stated): the TGI in experiment [10], in experiment [2], in [3], in experiment [5], in experiment [6] and in experiment [7] was over 100 µM throughout. Besides, the TGI in experiment [8] and in experiment [9] was over 100 µM throughout.
For `FC(F)=C(c1ccc(-c2ccc(Cl)cc2)cc1)C(F)(F)F`, the TGI amounted to 36.6 µM in experiment [1]; 46.3 µM in experiment [10]; 33.9 µM in experiment [2]; 37.5 µM in experiment [3]; 45.4 µM in experiment [4]; 46.3 µM in [5]. The TGI in experiment [6] is 41.5 µM; in experiment [7] it was 36.1 µM; in experiment [8], 52.4 µM; in [9], 62.1 µM.
As for `NNC(=O)c1cccc2c1Oc1ccccc1S2`, the TGI in experiment [10], in experiment [2], in [3], in experiment [5], in experiment [6] and in experiment [7] was over 100 µM throughout. The TGI in experiment [8] and in experiment [9] was over 100 µM in each case.

These data come from PubChem BioAssay (NCI).
